Key:
Assay type in all cases: in vivo
Plutella xylostella = assay: Leaf dip method (cabbage leaves) against Plutella xylostella (Example C); conditions: single compound, 72 h
Procedure: The leaf dip method was used, wherein the required quantity of the compound or respective compound combinations were weighed and dissolved in a test solution prepared in tubes. The tubes were put on a vortex at 2000 rpm for 90 min for proper mixing and then the test solutions were diluted with 0.01% Triton-X to the desired test concentration. Cabbage leaves were dipped into the solution for 10 seconds, shade dried for 20 min and then transferred to single cells of bioassay trays. A single second instar larva was released into each cell and the tray was covered with a lid. The bio-assay trays were kept under laboratory conditions at a temperature of 25° C. and relative humidity of 70%. Observations on dead, moribund and live larvae were recorded 72 h after the release. Percent mortality was calculated by combining dead and moribund larvae and comparing the result with the one of the untreated control. The results are shown for compound of formula (I-III) in Table C.

Helicoverpa armigera = assay: Diet incorporation method against Helicoverpa armigera (Example A); conditions: single compound, 96 h
Procedure: The diet incorporation method was used, in which semi-synthetic diet was incorporated into the test solutions consisting either of the single compounds or respective compound combinations, when the temperature was approximately 50° C. in the bio-assay containers, then stirred thoroughly for proper mixing and allowed to cool for 30 min. The solidified diet was cut into equal pieces, and then each piece was transferred into one cell of a bio-assay tray. A single starved third instar larva was released into each of these cells of the bio-assay trays and the tray was covered with a lid. The bio-assay trays were kept under laboratory conditions at a temperature of 25° C. and relative humidity of 70%. Observations on dead, moribund and live larvae were recorded 96 h after the release of the larvae. Percent mortality was calculated by combining dead and moribund larvae and comparing the result to the one of the untreated control. The results are shown for the compound of formula (I-III) in Table A.

Spodoptera litura = assay: Diet incorporation method against Spodoptera litura (Example B); conditions: single compound, 96 h
Procedure: The diet incorporation method was used, in which semi-synthetic diet was incorporated into the test solution consisting either of the single compound or respective compound combinations, when the temperature was approximately 50° C. in the bioassay containers, then stirred thoroughly for proper mixing and allowed to cool for 30 min. The solidified diet was cut into equal pieces, and then each piece was transferred into one cell of the bio-assay trays. A single starved third instar larva was released into each of these cells of the bio-assay trays and the tray was covered with a lid. The bio-assay trays were kept under laboratory conditions at a temperature of 25° C. and relative humidity of 70%. Observations on dead, moribund and live larvae were recorded 96 h after the release. Percent mortality was calculated by combining dead and moribund larvae and comparing the result with the one of the untreated control. The results are shown for the compound of formula (I-III) in Table B.

Phakopsora pachyrhizi = assay: Preventive glasshouse test against Phakopsora pachyrhizi in soybean (Example H); conditions: single compound
Procedure: The single compounds or the respective compound combinations were dissolved in 2% dimethyl sulfoxide/acetone and then mixed with water containing an emulsifier to a calibrated spray volume of 50 ml. The test solutions were poured into spray bottles for further applications.
To test the preventive activity of compounds, healthy young Soybean plants, raised in the greenhouse, were sprayed with the active compound preparation at the stated application rates inside the spray cabinets using hollow cone nozzles. One day after treatment, the plants were inoculated with a suspension containing 2×10^5 Phakopsora pachyrhizi conidia. The inoculated plants were then kept in a greenhouse chamber at a temperature of 22-24° C. and 80-90% relative humidity for disease expression.
A visual assessment of the performance of the single compounds and respective compound combinations was carried out by rating the disease severity (0-100% scale) on treated plants 3, 7, 10 and 15 days after application. Efficacy (% control) of the compounds was calculated by comparing the disease rating in the treatment with the one of the untreated control. The compounds were also assessed for their plant compatibility by recording symptoms like necrosis, chlorosis and stunting. The results have been described for the compound of formula (I-III) in Table H.

Alternaria solani = assay: Preventive glasshouse test against Alternaria solani in tomato (Example G); conditions: single compound
Procedure: The single compounds or respective compound combinations were dissolved in 2% dimethyl sulfoxide/acetone and then mixed with water containing emulsifier to a calibrated spray volume of 50 mL. The test solutions were poured into spray bottles for further applications.
To test the preventive activity, healthy young tomato plants, raised in the greenhouse, were sprayed with the active compound preparation at the stated application rates inside the spray cabinets using hollow cone nozzles. One day after treatment, the plants were inoculated with a spore suspension containing 0.24×10^6 Alternaria solani inoculum and 2% Malt. The inoculated plants were then kept in a greenhouse chamber at a temperature of 22-24° C. and 90-95% relative humidity for disease expression.
A visual assessment of the performance of the single compounds or compound combinations was carried out by rating the disease severity (0-100% scale) on treated plants 3, 7, 10 and 15 days after application. Efficacy (% control) of the single compounds and mixtures was calculated by comparing the disease rating in the treatment with the one of the untreated control. The compounds were also assessed for their plant compatibility by recording symptoms like necrosis, chlorosis and stunting. The results have been described for the compound of formula (I-III) in Table G.

Erysiphe cichoracearum = assay: Preventive glasshouse test against Erysiphe cichoracearum in cucumber (Example K); conditions: single compound, Conc. 100 ppm
Procedure: The single compounds or the respective compound combinations were dissolved in 2% dimethyl sulfoxide/acetone and then mixed with water containing emulsifier to a calibrated spray volume of 50 mL. The test solutions were poured into spray bottles for further applications.
To test the preventive activity of compounds, healthy young cucumber plants, raised in the greenhouse, were sprayed with the active compound preparation at the stated application rates inside the spray cabinets using hollow cone nozzles. One day after treatment, the plants were inoculated with a conidial suspension containing 2×10^5 Erysiphe cichoracearum inoculum. The inoculated plants were then kept in a greenhouse chamber at a temperature of 22-24° C. and 50-60% relative humidity for disease expression.
A visual assessment of the performance of the compounds and the respective compound combinations was carried out by rating the disease severity (0-100% scale) on treated plants 3, 7, 10 and 15 days after application. Efficacy (% control) of the single compounds or compound combinations was calculated by comparing the disease rating in the treatment with the one of the untreated control. The compounds were also assessed for their plant compatibility by recording symptoms like necrosis, chlorosis and stunting. The results have been described for the compound of formula (I-III) in Table K.

[1] = Spodoptera litura, 100 ppm, read-out: Observed Efficacy (%)
[2] = Spodoptera litura, read-out: Observed Efficacy (%)
[3] = Helicoverpa armigera, 100 ppm, read-out: Observed Efficacy (%)

With `N#Cc1ccc(CC(=NNC(=O)Nc2ccc(OC(F)(F)F)cc2)c2cccc(C(F)(F)F)c2)cc1` (mixture of isomers) [Metaflumizone] the “Observed Efficacy (%)” value (Plutella xylostella; 0.01 ppm) was 25% and the “Observed Efficacy (%)” value (Plutella xylostella; 0.1 ppm) was 0%.
`Cc1c(COC(=O)[C@@H]2[C@H](/C=C(\Cl)C(F)(F)F)C2(C)C)cccc1-c1ccccc1` (racemic) [Bifenthrin] was tested, and the “Observed Efficacy (%)” value (Plutella xylostella; 0.5 ppm) was 12.5%, the “Observed Efficacy (%)” value (Plutella xylostella; 1 ppm) was 25% and the pest or weed control at 1 ppm (Helicoverpa armigera; Helicoverpa armigera, 1 ppm, read-out: Observed Efficacy (%)) was 0%.
`C[C@]1(COC(=O)C2CC2)[C@@H]2C[C@H](O)[C@@]3(C)Oc4cc(-c5cccnc5)oc(=O)c4[C@H](O)[C@@H]3[C@@]2(C)CC[C@@H]1OC(=O)C1CC1` [Afidopyropen] was tested, and the “Observed Efficacy (%)” value (Plutella xylostella; 0.1 ppm) was 0%, the “Observed Efficacy (%)” value (Spodoptera litura; 50 ppm) was 0% and the “Observed Efficacy (%)” value (Spodoptera litura; 100 ppm) was 0%.
For `CN(C(=O)c1ccccc1)c1cccc(C(=O)Nc2c(Br)cc(C(F)(C(F)(F)F)C(F)(F)F)cc2C(F)(F)F)c1F` [Broflanilide], the “Observed Efficacy (%)” value (Helicoverpa armigera; 0.05 ppm) was 0%, the “Observed Efficacy (%)” value (Helicoverpa armigera; 0.1 ppm) was 12.5% and the “Observed Efficacy (%)” value (Spodoptera litura; 0.05 ppm) was 0%.
In the case of `CN/C(=N\[N+](=O)[O-])NCc1cnc(Cl)s1` [Clothianidin], the pest or weed control at 10 ppm (Helicoverpa armigera; Helicoverpa armigera, 10 ppm, read-out: Observed Efficacy (%)) is reported as 12.5%, the pest or weed control at 20 ppm (Helicoverpa armigera; Helicoverpa armigera, 20 ppm, read-out: Observed Efficacy (%)) is reported as 25% and the pest or weed control at 20 ppm (Spodoptera litura; Spodoptera litura, 20 ppm, read-out: Observed Efficacy (%)) is reported as 0%.
For `CCN(C(=O)c1cnn(C(C)C(C)C)c1C)c1ccnnc1` (stereo not shown) [Dimpropyridaz], the “Observed Efficacy (%)” value (Plutella xylostella; 0.1 ppm) was 12.5% and the “Observed Efficacy (%)” value (Spodoptera litura; 100 ppm) was 0%.
`N#Cc1nn(-c2c(Cl)cc(C(F)(F)F)cc2Cl)c(N)c1[S+]([O-])C(F)(F)F` (stereo not shown) [Fipronil] was tested, and the “Observed Efficacy (%)” value (Plutella xylostella; 0.001 ppm) was 0%.
`CCc1nc2cc(C)c(Oc3ccc(OC(F)(F)F)cc3)cc2c(OC(=O)OC)c1C` [Flometoquin] was tested, and the “Observed Efficacy (%)” value (Plutella xylostella; 0.005 ppm) was 12.5%.
For `N#Cc1c[nH]cc1-c1cccc2c1OC(F)(F)O2` [Fludioxonil], the pest or weed control at 100 ppm (Spodoptera litura; [1]) was 37.5%, the pest or weed control at 200 ppm (Spodoptera litura; [2]) was 25% and the “Observed Efficacy (%)” value (Phakopsora pachyrhizi; 2.0 ppm) was 19%. For the same compound, the “Observed Efficacy (%)” value (Phakopsora pachyrhizi; 10.0 ppm) was 28%.
For `CON=CNC(=O)c1ccc(C2=NOC(c3cc(Cl)cc(Cl)c3)(C(F)(F)F)C2)cc1C` (stereo not shown) [Fluxametamid], the “Observed Efficacy (%)” value (Plutella xylostella; 0.05 ppm) was 0% and the “Observed Efficacy (%)” value (Plutella xylostella; 0.1 ppm) was 0%.
`O=[N+]([O-])NC1=NCCN1Cc1ccc(Cl)nc1` [Imidacloprid] was tested, and the “Observed Efficacy (%)” value (Plutella xylostella; 0.1 ppm) was 0%, the pest or weed control at 50 ppm (Helicoverpa armigera; Helicoverpa armigera, 50 ppm, read-out: Observed Efficacy (%)) was 0% and the pest or weed control at 100 ppm (Spodoptera litura; [1]) was 0%.
`COC(=O)N(C(=O)N1CO[C@@]2(C(=O)OC)Cc3cc(Cl)ccc3C2=N1)c1ccc(OC(F)(F)F)cc1` [Indoxacarb] was tested, and the “Observed Efficacy (%)” value (Helicoverpa armigera; 0.1 ppm) was 0% and the “Observed Efficacy (%)” value (Spodoptera litura; 0.1 ppm) was 0%.
`CCN1OCC(NC(=O)c2ccc(C3=NOC(c4cc(Cl)c(F)c(Cl)c4)(C(F)(F)F)C3)cc2C)C1=O` (stereo not shown) [Isocycloseram] was tested, and the “Observed Efficacy (%)” value (Plutella xylostella; 0.1 ppm) was 87.5% and the “Observed Efficacy (%)” value (Spodoptera litura; 10 ppm) was 12.5%.
For `COCC(=O)N(c1c(C)cccc1C)C(C)C(=O)OC` (stereo not shown) [Metalaxyl], the pest or weed control at 200 ppm (Spodoptera litura; [2]) was 0%, the pest or weed control at 500 ppm (Spodoptera litura; [2]) was 0% and the “Observed Efficacy (%)” value (Alternaria solani; 50 ppm) was 22%. For the same compound, the “Observed Efficacy (%)” value (Alternaria solani; 100 ppm) was 22% and the “Observed Efficacy (%)” value (Erysiphe cichoracearum) was 31%.
For `CCS(=O)(=O)c1cccnc1-c1nc2cc(S(=O)(=O)C(F)(F)F)ccc2o1` [Oxazosulfyl, 2-[3-(ethanesulfonyl)pyridin-2-yl]-5-[trifluoro(methanesulfonyl)]-1,3-benzoxazole], the “Observed Efficacy (%)” value (Plutella xylostella; 0.1 ppm) was 0% and the pest or weed control at 100 ppm (Helicoverpa armigera; [3]) was 12.5%.
For `CC1=NNC(=O)N(/N=C/c2cccnc2)C1` [Pymetrozine], the “Observed Efficacy (%)” value (Plutella xylostella; 0.01 ppm) was 0%, the “Observed Efficacy (%)” value (Plutella xylostella; 0.05 ppm) was 0% and the “Observed Efficacy (%)” value (Plutella xylostella; 1 ppm) was 12.5%.
With `CC(COc1ccc(Oc2ccccc2)cc1)Oc1ccccn1` (stereo not shown) [Pyriproxyfen] the “Observed Efficacy (%)” value (Plutella xylostella; 0.05 ppm) was 12.5%, the “Observed Efficacy (%)” value (Plutella xylostella; 0.1 ppm) was 25% and the “Observed Efficacy (%)” value (Plutella xylostella; 1 ppm) was 12.5%.
With `CN1COCN(Cc2cnc(Cl)s2)/C1=N\[N+](=O)[O-]` [Thiamethoxam] the “Observed Efficacy (%)” value (Plutella xylostella; 1 ppm) was 12.5%, the pest or weed control at 100 ppm (Helicoverpa armigera; [3]) was 25% and the pest or weed control at 50 ppm (Spodoptera litura; Spodoptera litura, 50 ppm, read-out: Observed Efficacy (%)) was 0%. The pest or weed control at 100 ppm (Spodoptera litura; [1]) was 0%.
`COC(=O)NC(=S)Nc1ccccc1NC(=S)NC(=O)OC` [Thiophanate-methyl] gave a pest or weed control at 100 ppm (Helicoverpa armigera; [3]) of 0%, a pest or weed control at 200 ppm (Helicoverpa armigera; Helicoverpa armigera, 200 ppm, read-out: Observed Efficacy (%)) of 0% and a pest or weed control at 500 ppm (Helicoverpa armigera; Helicoverpa armigera, 500 ppm, read-out: Observed Efficacy (%)) of 0%. For the same compound, the pest or weed control at 100 ppm (Spodoptera litura; [1]) was 0%, the pest or weed control at 200 ppm (Spodoptera litura; [2]) was 0% and the pest or weed control at 500 ppm (Spodoptera litura; [2]) was 0%. For the same compound, the “Observed Efficacy (%)” value (Alternaria solani; 10 ppm) was 36% and the “Observed Efficacy (%)” value (Alternaria solani; 50 ppm) was 36%.
In the case of `O=c1c(-c2cccc(C(F)(F)F)c2)c([O-])[n+](Cc2cncnc2)c2ccccn12` [Triflumezopyrim], the “Observed Efficacy (%)” value (Helicoverpa armigera; 50 ppm) is reported as 12.5%, the “Observed Efficacy (%)” value (Helicoverpa armigera; 100 ppm) is reported as 0% and the “Observed Efficacy (%)” value (Spodoptera litura; 50 ppm) is reported as 25%.
In the case of `CCN(C(=O)CCSCCC(F)(F)F)c1cn(-c2cccnc2)nc1Cl` [Tyclopyrazoflor], the “Observed Efficacy (%)” value (Plutella xylostella; 0.1 ppm) is reported as 0% and the “Observed Efficacy (%)” value (Spodoptera litura; 100 ppm) is reported as 0%.
In the case of Abamectin, the “Observed Efficacy (%)” value (Plutella xylostella; 0.001 ppm) is reported as 12.5% and the “Observed Efficacy (%)” value (Plutella xylostella; 0.005 ppm) is reported as 25%.
For Emamectin benzoate, the “Observed Efficacy (%)” value (Helicoverpa armigera; 0.1 ppm) was 12.5%, the “Observed Efficacy (%)” value (Spodoptera litura; 0.05 ppm) was 12.5% and the “Observed Efficacy (%)” value (Spodoptera litura; 0.1 ppm) was 25%.
In the case of Spinetoram, the “Observed Efficacy (%)” value (Plutella xylostella; 0.05 ppm) is reported as 62.5% and the “Observed Efficacy (%)” value (Helicoverpa armigera; 0.5 ppm) is reported as 25%.
For Spinosad, the “Observed Efficacy (%)” value (Helicoverpa armigera; 0.2 ppm) was 12.5% and the “Observed Efficacy (%)” value (Spodoptera litura; 0.2 ppm) was 0%.

Source: patent US20230276804A1, “A PESTICIDALLY ACTIVE MIXTURE COMPRISING PYRAZOLOPYRIDINE ANTHRANILAMIDE COMPOUND, OXIDES OR SALTS THEREOF” (priority 2020, published 2023)
